Results as given in PubChem BioAssay AID2060892 (Molecular Pharmacology Branch, DTP, NCI, 2025).

Tested on: HOP-62 complex spheroids with HUVEC/MSC, viability
Experiment: Anticancer human tumor HOP-62 cell line growth inhibition [RAS];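 note: spheroids exposed to agents for seven days before readout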;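 for viability, T/C: 100% = DMSO vehicle control viability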
Conditions: for IC50: curve of first compound; for viability, T/C: stronger effect = lower value
Text: RAS pathway inhibitors in Combinations in Complex Spheroids
A high-throughput screen of multi-cell type tumor spheroids was designed to identify active combinations of RAS pathway inhibitors and targeted small molecules. Complex spheroids include a stromal component modeled by human endothelial cells (HUVEC) and fibroblasts modeled by human mesenchymal stem cells (MSCs). The concentration ranges selected for each drug and investigational agent were based upon clinically achievable concentrations if the clinical Cmax of the agent was known.
Compounds. The drugs and investigational agents: abemaciclib (NSC768073), cobimetinib (NSC768068), divarasib (GDC6063, NSC841802), docetaxel (NSC628503), GDC-1971 (RLY-1971, NSC841576), gemcitabine (NSC613327), inavolisib (NSC800729), ipatasertib (NSC767898), KB-0742 (NSC834161), MRTX-1133 (NSC836407), osimertinib (NSC779217), RMC-4630 (NSC839698), RMC-6236 (NSC851965), RMC-6291 (NSC852671), Ro-3306 (NSC812927), sapanisertib (NSC764658), SN-38 (NSC673596), staurosporine (NSC755774), SY5609 (NSC837396), and tovorafenib (DAY101, NSC766906), were obtained from the National Cancer Institute (NCI) Developmental Therapeutics Program Chemical Repository. The FDA-approved anticancer drug set is available from the NCI Developmental Therapeutics Program. […] The stock solutions were prepared in dimethyl sulfoxide (DMSO, Sigma-Aldrich, St. Louis, MO, cat. D2650) at 800-fold the tested concentration and stored at -70 degrees C prior to their use. All drugs and investigational agents were tested over a range starting from a high concentration at or near the clinical Cmax and decreasing in half-log increments. If the clinical Cmax for an agent had not been determined, the highest concentration tested was 10 microM.
Cell Culture. All cells were maintained in an incubator at 37 degrees C and 5% CO2 with 95% humidity. The PDC lines were cultured according to standard operating procedures established by the NCI PDMR. All PDCs were thawed and cultured in Matrigel-coated flasks prepared with a working solution of 1X Ham's F-12 nutrient mix, without supplementation (Invitrogen, Waltham, MA, cat. 11765054), 100 U/mL penicillin-streptomycin (Invitrogen, cat. 15140122), and 2.5% Matrigel (Corning Inc., Corning, NY, cat. 354248) for the first three passages. The 362531-283-R-J2-PDC and 782815-120-R-J1-PDC lines were cultured in 6C/Colon 1B media, which includes advanced DMEM/F-12 (Thermo Fisher Scientific, cat. 12634028), 10 mM HEPES (Thermo Fisher Scientific, cat. 15630080), 1X GlutaMAX supplement (Thermo Fisher Scientific, cat. 35050061), 0.1 mg/mL primocin (InvivoGen, San Diego, CA, cat. ant-pm-2), 10% defined fetal bovine serum, heat inactivated (HyClone Laboratories Inc., Logan, UT, cat. SH30070.03HI), 50% L-WRN conditioned media (ATCC, cat. CRL-3276), 1.25 mM N-Acetyl-L-cysteine (Sigma-Aldrich, cat. A9165), 10 mM nicotinamide (Sigma-Aldrich, cat. N0636), 1X B-27 supplement (Thermo Fisher Scientific, cat. 17504044), 1X N-2 supplement (Thermo Fisher Scientific, cat. 17502048), 50 ng/mL human EGF (Thermo Fisher Scientific, cat. PHG0311), and 10 microM Y-27632 dihydrochloride (Tocris Bioscience, cat. 1254). The K12877-001-R-J1-PDC line was cultured in 6I media, which includes all 6C/Colon 1B media plus 10 ng/mL human FGF-10 (PeproTech, cat. 100-26), 1 ng/mL human FGF-2 (PeproTech, cat. 100-18B), 1 µM prostaglandin E2 (Tocris Bioscience, cat. 2296), […] hydrocortisone (Sigma-Aldrich, cat. H4001), and […] bovine insulin (Sigma-Aldrich, cat. I6634). The K86415-001-R-J1-PDC line was cultured in 6D media, which includes all 6C/Colon 1B media components minus the L-WRN conditioned media. The 485176-168-R4-J1-PDC was cultured in PANC media, which includes all 6C/Colon 1B media plus 100 ng/mL human FGF-10 (PeproTech, cat. 100-26), 500 nM SB-431542 (Selleckchem, cat. S1067), and 10 nM gastrin (Tocris Bioscience, cat. 3006). […]

[1] = second compound 0.0316 µM, first compound 0.0316 µM
[2] = second compound 0.0316 µM, first compound 0.1 µM
[3] = second compound 0.0316 µM, first compound 0.316 µM
[4] = second compound 0.0316 µM, first compound 1 µM
[5] = second compound 0.1 µM, first compound 0.0316 µM
[6] = second compound 0.1 µM, first compound 0.1 µM
[7] = second compound 0.1 µM, first compound 0.316 µM
[8] = second compound 0.1 µM, first compound 1 µM
[9] = second compound 0.316 µM, first compound 0.0316 µM
[10] = second compound 0.316 µM, first compound 0.1 µM
[11] = second compound 0.316 µM, first compound 0.316 µM
[12] = second compound 0.316 µM, first compound 1 µM
[13] = second compound 1 µM, first compound 0.0316 µM
[14] = second compound 1 µM, first compound 0.1 µM
[15] = second compound 1 µM, first compound 0.316 µM
[16] = second compound 1 µM, first compound 1 µM
[17] = second compound 3.16 µM, first compound 0.0316 µM
[18] = second compound 3.16 µM, first compound 0.1 µM
[19] = second compound 3.16 µM, first compound 0.316 µM
[20] = second compound 3.16 µM, first compound 1 µM
[21] = second compound 10 µM, first compound 0.0316 µM
[22] = second compound 10 µM, first compound 0.1 µM
[23] = second compound 10 µM, first compound 0.316 µM
[24] = second compound 10 µM, first compound 1 µM

## CC(Nc1ccc2c(c1)OCCn1cc(N3C(=O)OCC3C(F)F)nc1-2)C(N)=O (centres undefined) + C#Cc1c(F)ccc2cc(O)cc(-c3ncc4c(N5CC6CCC(C5)N6)nc(OCC56CCCN5CC(F)C6)nc4c3F)c12
Second compound 0.0316 µM
  IC50: 1330 nM
Second compound 0.1 µM
  IC50: 1610 nM
Second compound 0.316 µM
  IC50: 1020 nM
Second compound 1 µM
  IC50: 751 nM
Second compound 3.16 µM
  IC50: 96.4 nM
Second compound 10 µM
  IC50: < 31.6 nM
[1]
  viability, T/C: 80.5%
[2]
  viability, T/C: 69.2%
[3]
  viability, T/C: 54.6%
[4]
  viability, T/C: 59.8%
Second compound 0.0316 µM, first compound 3.16 µM
  viability, T/C: 42.8%
Second compound 0.0316 µM, first compound 10 µM
  viability, T/C: 32.9%
[5]
  viability, T/C: 85.6%
[6]
  viability, T/C: 78.5%
[7]
  viability, T/C: 57%
[8]
  viability, T/C: 58.4%
Second compound 0.1 µM, first compound 3.16 µM
  viability, T/C: 45.9%
Second compound 0.1 µM, first compound 10 µM
  viability, T/C: 32.8%
[9]
  viability, T/C: 86.9%
[10]
  viability, T/C: 68.9%
[11]
  viability, T/C: 59.6%
[12]
  viability, T/C: 52.9%
Second compound 0.316 µM, first compound 3.16 µM
  viability, T/C: 41.3%
Second compound 0.316 µM, first compound 10 µM
  viability, T/C: 31.4%
[13]
  viability, T/C: 78.5%
[14]
  viability, T/C: 67.4%
[15]
  viability, T/C: 53.5%
[16]
  viability, T/C: 50.6%
Second compound 1 µM, first compound 3.16 µM
  viability, T/C: 39.2%
Second compound 1 µM, first compound 10 µM
  viability, T/C: 28.4%
[17]
  viability, T/C: 67.8%
[18]
  viability, T/C: 41.7%
[19]
  viability, T/C: 40%
[20]
  viability, T/C: 32.3%
Second compound 3.16 µM, first compound 3.16 µM
  viability, T/C: 22.3%
Second compound 3.16 µM, first compound 10 µM
  viability, T/C: 15.1%
[21]
  viability, T/C: 31.3%
[22]
  viability, T/C: 22.8%
[23]
  viability, T/C: 19.2%
[24]
  viability, T/C: 17.3%
Second compound 10 µM, first compound 3.16 µM
  viability, T/C: 12.6%
Second compound 10 µM, first compound 10 µM
  viability, T/C: 10.2%

## O=C(c1ccc(F)c(F)c1Nc1ccc(I)cc1F)N1CC(O)([C@@H]2CCCCN2)C1 + C#Cc1c(F)ccc2cc(O)cc(-c3ncc4c(N5CC6CCC(C5)N6)nc(OCC56CCCN5CC(F)C6)nc4c3F)c12
Second compound 0.0316 µM
  IC50: 122 nM
Second compound 0.1 µM
  IC50: 149 nM
Second compound 0.316 µM
  IC50: 141 nM
Second compound 1 µM
  IC50: 106 nM
Second compound 3.16 µM
  IC50: 42.1 nM
Second compound 10 µM
  IC50: < 3.16 nM
Second compound 0.0316 µM, first compound 0.00316 µM
  viability, T/C: 107%
Second compound 0.0316 µM, first compound 0.01 µM
  viability, T/C: 113%
[1]
  viability, T/C: 97.3%
[2]
  viability, T/C: 54.2%
[3]
  viability, T/C: 30.8%
[4]
  viability, T/C: 25.2%
Second compound 0.1 µM, first compound 0.00316 µM
  viability, T/C: 112%
Second compound 0.1 µM, first compound 0.01 µM
  viability, T/C: 114%
[5]
  viability, T/C: 90.2%
[6]
  viability, T/C: 61%
[7]
  viability, T/C: 31.3%
[8]
  viability, T/C: 24%
Second compound 0.316 µM, first compound 0.00316 µM
  viability, T/C: 113%
Second compound 0.316 µM, first compound 0.01 µM
  viability, T/C: 108%
[9]
  viability, T/C: 88.3%
[10]
  viability, T/C: 58.1%
[11]
  viability, T/C: 32.2%
[12]
  viability, T/C: 26.8%
Second compound 1 µM, first compound 0.00316 µM
  viability, T/C: 96.7%
Second compound 1 µM, first compound 0.01 µM
  viability, T/C: 95.7%
[13]
  viability, T/C: 82%
[14]
  viability, T/C: 50.1%
[15]
  viability, T/C: 33.2%
[16]
  viability, T/C: 25.3%
Second compound 3.16 µM, first compound 0.00316 µM
  viability, T/C: 73.6%
Second compound 3.16 µM, first compound 0.01 µM
  viability, T/C: 63.6%
[17]
  viability, T/C: 56.3%
[18]
  viability, T/C: 36.5%
[19]
  viability, T/C: 22.3%
[20]
  viability, T/C: 18.3%
Second compound 10 µM, first compound 0.00316 µM
  viability, T/C: 46.4%
Second compound 10 µM, first compound 0.01 µM
  viability, T/C: 47.9%
[21]
  viability, T/C: 32.2%
[22]
  viability, T/C: 23.9%
[23]
  viability, T/C: 12.5%
[24]
  viability, T/C: 11.7%
